Tested on: human epidermoid cancer cell line A-431
Assay: MTT cell proliferation assay, human epidermoid (squamous) carcinoma cell line A-431
Assay type: cell-based
Settings: for Mean OD: MTT Optical Density at 570 nm
Experimental: The three human skin cancer cell lines were: • 1) Human Melanoma cell line (A-2058). • 2) Human Epidermoid (Squamous) Carcinoma cell line (A-431). • 3) Human Basal Cell Carcinoma cell line (TE 354.T).
The cell lines were revived from cryostorage and cultured in the presence of the test and reference samples. An MIT assay was then performed on the cultures to determine the effect of the samples on the cell viability and proliferation. The percentage standard error of the mean was assessed and extreme outliers were removed if the SEM%>15. Preliminary statistical significance was assessed with an independent Student t-test at α<0.05 (with and without outliers). The methodology was based on the procedures reported by: • Ahn, N G, Campbell J S (1993). […] Proc Natl Acad Sci. 90: 5143-5147. • Galan-Cobo, A et al (2014). Functional inhibition of aquaporin-3 with a gold-based compound induces blockage of cell proliferation. J Cellul. Physiol. 229: 1787-1801. • Roomi, M W, Kalinovsky, J et al (2013) Effect of a nutrient mixture on matrix metalloproteinase-9 dimers in various human cancer cell lines. Inter 3 Oncol. 44: 936-942. • Huang, H C, Lin, M K et al (2013). Cardenolides and bufadienolide glycosides from Kalanchoe tubiflora and evaluation of cytotoxicity. Planta Medica. 79: 1362-1369. • Tilli, C M L J, Stavast-Kooy, A J W et al (2003). The garlic-derived organosulfur component ajoene decreases basal cell carcinoma tumor size by inducing apoptosis. Arch Dermatol Res. 295: 117-123.
• 1. Human melanoma cell line (A-2058, ATCC CRL11147) was obtained from ATCC, Bethesda, Md., USA. • 2. Human squamous (epidermoid) carcinoma cell line (A-431, ATCC CRL1555) was obtained from ATCC, Bethesda, Md. USA. • 3. Human basal cell carcinoma cell line (TE 354.T, ATCC CRL7762) was obtained from ATCC, Bethesda, Md., USA. • 4. Dulbecco's Modified Eagle's Medium (DMEM) was obtained from GIBCO (12100-038). 10% Foetal Bovine Serum (FBS), 100 U/ml Penicillin and […] Streptomycin were added before use. • 5. Penicillin-streptomycin solution, stored at −20° C. consisting of 10000 units/ml penicillin and 10 mg/ml streptomycin in 0.9% NaCl was obtained from Sigma (#P-0781). • 6. Trypsin-EDTA solution consisting of 0.25% Trypsin/EDTA was obtained from Invitrogen (#15400054). • 7. Phosphate buffered saline (PBS) was prepared in-house. • 8. Hanks Balanced Salt Solution (HBSS), stored at 4° C. was obtained from GIBCO (#14185-052). • 9. Foetal Bovine Serum (FBS) stored at −20° C. was obtained from GIBCO (#10091-148). • 10. MTT Reagent, 100 mg/vial, was obtained from Sigma (M-2128) and then dissolved in PBS at 10 mg/ml and stored at −20° C. A 5 mg/ml MTT solution was prepared in PBS and stored at 4° C. as the working solution. • 11. MU lysis buffer: 10% sodium dodecyl sulphate (SDS)/45% Dimethyl Formamide was prepared by dissolving 20 g SDS in 100 ml of double-distilled water (DDW), and then adding 90 ml of Dimethyl Formamide to the solution. The pH was adjusted to 4.7 by glacial acetic acid, and DDW added up to a final volume of 200 ml. • 12. 5-Fluorouracil (5-FU) was supplied by Sigma (F-6627). Three working solutions were prepared at 19.5 μg/ml. 6.5 μg/ml and 1.95 μg/ml dissolved in 15% Ethanol/HBSS. Final concentrations were 1.95 μg/ml (15 μM), 0.65 μg/ml (5 μM) and 0.195 μg/ml (1.5 μM).
• 1. Each of the cell lines was revived from cryostorage. • 2. Following initial propagation using the media described above (Characterisation of Test System, and Medium Preparation), the cell culture was subcultured using trypsin-EDTA. The media was removed and 5ml of the trypsin-EDTA solution added and incubated at 37° C. for 5 min or until all the cells had detached. The trypsin was neutralised by the addition of an equal volume of the relevant medium and centrifugation of the suspension at 300 g (1200 rpm) for 5 min at 4° C. • 3. […]

SMILES: O=c1[nH]cc(F)c(=O)[nH]1 [5-fluorouracil, reference compound]
- % inhibition (A-431, 0.195 μg/ml, 24 hr incubation, vs cells only): weak and statistically insignificant inhibitor
- Mean OD (A-431, 0.195 μg/ml): 0.2364
- % inhibition (A-431, 0.65 μg/ml, 24 hr incubation, vs cells only): weak and statistically insignificant inhibitor
- Mean OD (A-431, 0.65 μg/ml): 0.2416
- % inhibition (A-431, 1.95 μg/ml, 24 hr incubation, vs cells only): weak and statistically insignificant inhibitor
- Mean OD (A-431, 1.95 μg/ml): 0.2561
- inhibition at 0.195 µg/mL (Homo sapiens, A-431, 0.195 μg/ml, 24 hr incubation, vs cells only): 9.79%
- inhibition at 0.65 µg/mL (Homo sapiens, A-431, 0.65 μg/ml, 24 hr incubation, vs cells only): 7.8%
- inhibition at 1.95 µg/mL (Homo sapiens, A-431, 1.95 μg/ml, 24 hr incubation, vs cells only): 2.26%

From patent US20170209499A1, “Propolis and Extracts Thereof for the Treatment of Skin Cancers and Improvement of Skin Health” (Manuka Health New Zealand Limited, priority 2014, published 2017)
